In this assay the target is V1a (Homo sapiens, UniProt P37288). In words: Human vasopression V1a receptor binding assay. Further details: host or cells: CHO cells (hV1a cell line), whole adherent cells. The settings on record: hV1a cell line (CHO); for IC50: 1 nM 3H-AVP, Table 17, read-out: V1a Binding Affinity (IC50 (nM)); for Ki: Table 18. An outline of the steps: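 Whole CHO cells stably expressing human V1a receptor competed 1 nM 3H-AVP against 10-fold serial compound dilutions (DMSO) in pH 7.0 Hepes/BSA/DMEM buffer, 45 min at 37° C.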
Sequence of V1a (P37288 whole entry): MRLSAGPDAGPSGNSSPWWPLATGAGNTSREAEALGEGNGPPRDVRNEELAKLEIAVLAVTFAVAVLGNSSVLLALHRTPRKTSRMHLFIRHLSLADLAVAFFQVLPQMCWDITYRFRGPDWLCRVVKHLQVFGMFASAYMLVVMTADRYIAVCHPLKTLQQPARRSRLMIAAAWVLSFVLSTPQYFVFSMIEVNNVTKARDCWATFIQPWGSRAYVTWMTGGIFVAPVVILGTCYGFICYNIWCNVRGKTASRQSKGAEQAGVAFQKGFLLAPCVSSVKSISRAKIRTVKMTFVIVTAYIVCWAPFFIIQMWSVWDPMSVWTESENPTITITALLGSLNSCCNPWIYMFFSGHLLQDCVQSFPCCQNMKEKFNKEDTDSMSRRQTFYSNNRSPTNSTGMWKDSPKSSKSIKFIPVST

As usually defined, the IC50 is the concentration at which inhibition is half-maximal. Broadly, the Ki is the equilibrium dissociation constant of an inhibitor or competing ligand from its target. With `O=C(N[C@H]1CCc2ccccc21)[C@H](CCC(=O)N1CCN(C2CCCCC2)CC1)N1C(=O)[C@@H](N2C(=O)OC[C@@H]2c2ccccc2)[C@H]1/C=C/c1ccccc1` [Example 221R], the IC50 was found to be 5.13 nM and the Ki turned out to be 3.14 nM.
As to `O=C(N[C@@H]1CCc2ccccc21)[C@H](CCC(=O)N1CCN(C2CCCCC2)CC1)N1C(=O)[C@@H](N2C(=O)OC[C@@H]2c2ccccc2)[C@H]1/C=C/c1ccccc1` [Example 221S], the IC50 amounted to 5.03 nM and the Ki stood at 3.08 nM.
Turning to `O=C(CC[C@@H](C(=O)N[C@@H]1CCCc2ccccc21)N1C(=O)[C@@H](N2C(=O)OC[C@@H]2c2ccccc2)[C@H]1/C=C/c1ccccc1)NCCN1CCCCC1` [Example 221X], the IC50 was determined as 11.6 nM and the Ki came out at 7.2 nM.
`O=C(N[C@@H]1CCCc2ccccc21)[C@H](CCC(=O)N1CCC[C@H]1CN1CCCC1)N1C(=O)[C@@H](N2C(=O)OC[C@@H]2c2ccccc2)[C@H]1/C=C/c1ccccc1` [Example 221Y]: the IC50 was found to be 7.6 nM and the affinity, expressed as Ki, was 4.7 nM.
`Cc1ccccc1C(C)(C)NC(=O)[C@H](CCC(=O)N1CCN(C2CCCCC2)CC1)N1C(=O)[C@@H](N2C(=O)OC[C@@H]2c2ccccc2)[C@H]1/C=C/c1ccccc1` [Example 221]: the IC50 stood at 5.1 nM.
Consider `O=C(NCc1cccc(C(F)(F)F)c1)[C@H](CCC(=O)N1CCN(C2CCCCC2)CC1)N1C(=O)[C@@H](N2C(=O)OC[C@@H]2c2ccccc2)[C@H]1/C(Cl)=C/c1ccccc1` [Example 226], for which the IC50 was 0.49 nM and the Ki was 0.3 nM.
The matching figures for `CCN1CCN(C(=O)CC[C@@H](C(=O)NCc2cccc(C(F)(F)F)c2)N2C(=O)[C@@H](N3C(=O)OC[C@@H]3c3ccccc3)[C@H]2/C(Cl)=C/c2ccccc2)CC1` [Example 228]: 13.6 nM and 8.35 nM.
For the molecule `CCCCN1CCN(C(=O)CC[C@@H](C(=O)NCc2cccc(C(F)(F)F)c2)N2C(=O)[C@@H](N3C(=O)OC[C@@H]3c3ccccc3)[C@H]2/C(Cl)=C/c2ccccc2)CC1` [Example 229], the IC50 came out at 1.53 nM and the Ki was determined as 0.94 nM.
On to `O=C(CC[C@@H](C(=O)NCc1cccc(C(F)(F)F)c1)N1C(=O)C(N2C(=O)OC[C@@H]2c2ccccc2)C1/C(F)=C/c1ccccc1)NC1CN2CCC1CC2` (stereo partly shown) [Example 230F], for which the IC50 was about 100 nM.
As to `CCCCN1CCN(C(=O)CC[C@@H](C(=O)NCc2cccc(C(F)(F)F)c2)N2C(=O)C(N3C(=O)OC[C@@H]3c3ccccc3)C2/C(Br)=C/c2ccccc2)CC1` (stereo partly shown) [Example 230L], the IC50 came out at 12.7 nM and the inhibitory constant (Ki) came to 7.8 nM.
On to `CC(C)N1CCN(C(=O)CC[C@@H](C(=O)NCc2cccc(C(F)(F)F)c2)N2C(=O)[C@@H](N3C(=O)OC[C@@H]3c3ccccc3)[C@H]2/C(Cl)=C/c2ccccc2)CC1` [Example 230], for which the IC50 was found to be 7.07 nM and the Ki was 4.33 nM.
Turning to `COc1ccccc1C=CC1C(N2C(=O)OCC2c2ccccc2)C(=O)N1C(CC(=O)N1CCC(N2CCCCC2)CC1)C(=O)NCc1cccc(C(F)(F)F)c1` [Example 231, 2(R)-[[4-(Piperidinyl)piperidinyl]carbonylmethyl]-2-[3(S)-(4(S)-phenyloxazolidin-2-on-3-yl)-4(R)-(2′-methoxystyr-2-yl)azetidin-2-on-1-yl]acetic acid N-(3-trifluoromethylbenzyl)amide], the IC50 is 6.12 nM and the Ki was determined as 3.75 nM.
Turning to `O=C([C@@H](COCc1ccccc1)N1C(=O)[C@@H](N2C(=O)OC[C@@H]2c2ccccc2)[C@H]1/C=C/c1ccccc1)N1CCC(N2CCCCC2)CC1` [Example 232], the IC50 worked out at 1.37 nM and the Ki came out at 0.84 nM.
As for `O=C([C@@H](COCc1ccccc1)N1C(=O)[C@@H](N2C(=O)OC[C@@H]2c2ccccc2)[C@H]1/C=C/c1ccccc1)N1CCC(CCN2CCCCC2)CC1` [Example 233], the IC50 amounted to 0.56 nM and the Ki came out at 0.34 nM.
In the case of `C[C@@]1(N2C(=O)OC[C@@H]2c2ccccc2)C(=O)N([C@H](CC(=O)N2CCC(N3CCCCC3)CC2)C(=O)NCc2cccc(C(F)(F)F)c2)[C@@H]1/C=C/c1ccccc1` [Example 234A, 4-(Piperidinyl)-piperidinyl 3(R)-[3(S)-(4(S)-phenyloxazolidin-2-on-3-yl)-3-methyl-4(R)-(styr-2-yl)azetidin-2-on-1-yl]-3-[(3-trifluoromethyl)phenylmethylaminocarbonyl]propanoic acid], the IC50 was 8.6 nM and the Ki was 5.25 nM.
Take `O=C(C[C@@H](C(=O)NCc1cccc(C(F)(F)F)c1)N1C(=O)[C@@H](N2C(=O)OC[C@@H]2c2ccccc2)[C@H]1CCc1ccccc1)NC1CCN(Cc2ccccc2)CC1` [Example 235, 2(S)-[[(1-Benzylpiperidin-4-yl)amino]carbonylmethyl]-2-[3(S)-(4(S)-phenyloxazolidin-2-on-3-yl)-4(R)-(2-phenyleth-1-yl)azetidin-2-on-1-yl]acetic acid N-(3-trifluoromethylbenzyl)amide]: the IC50 is 37 nM and the affinity, expressed as Ki, was 23 nM.
As for `O=C(NCc1cccc(C(F)(F)F)c1)[C@H](CCC(=O)N1CCN(C2CCCCC2)CC1)N1C(=O)[C@@H](N2C(=O)OC[C@@H]2c2ccccc2)[C@H]1CCc1ccccc1` [Example 236, (2S)-[(4-cyclohexylpiperazinyl)carbonylethyl]-2-[3(S)-(4(S)-phenyloxazolidin-2-on-3-yl)-4(R)-(2-phenyleth-1-yl)azetidin-2-on-1-yl]acetic acid N-(3-trifluoromethylbenzyl)amide], the IC50 was determined as 1.68 nM and the Ki was 1.03 nM.
The matching figures for “(2S)-[(4-cyclohexylpiperazinyl)carbonylethyl]-2-[3(S)-(4(S)-phenyloxazolidin-2-on-3-yl)-4(R)-(2-phenyleth-1-yl)azetidin-2-on-1-yl]acetic acid N—[(R)-1,2,3,4-tetrahydronaphth-1-yl]amide [Example 236A]”: 9 nM and 5.5 nM.

Values taken from patent US9597314B2, “Beta-lactamylalkanoic acids for treating premenstrual disorders” (AZEVAN PHARMACEUTICALS, INC., priority 2005, dated 2017).
